Reference: US5382572A, “Alkyl and acyl substituted quinolines” (Schering Corporation, priority 1993, dated 1995)
Read-outs that look alike come from different tables or passages of the source.

Experiments:
HSV-2 (strain MS) = assay: HSV-β-gal assay: transient expression of beta-galactosidase in transfected HeLa cells superinfected with HSV-2; assay type: cell-based; settings: Human alphaherpesvirus 2, HeLa, 24 h, inhibition of beta-galactosidase expression, MOI 5 pfu/cell, read-out: ANTI-HSV ACTIVITY HSV-β-GAL ASSAY IC50
Procedure: HeLa and Vero cell cultures were maintained in Eagle's Minimal Essential Medium (EMEM) which was supplemented with glutamine, penicillin, streptomycin and 10% fetal calf serum (10% EMEM). Stock cultures of HSV-2 (strain MS available from ATCC VR-540) were grown in and harvested from Vero cells. Viral stocks were titered in Vero cells according to established procedures.
Plasmid pON 245^ori- contains the promoter of the HSV-1 thymidine kinase (tk) gene located immediately 5' of the E. coli lac Z gene. In this arrangement, the tk promoter controls transcription from the bacterial gene in transient expression assays. Additionally, an SV40 polyadenylation signal is present at the 3'-end of the lac Z gene to allow for the efficient translation of the mRNA in eucaryotic cells. The expression of beta-galactosidase in a transient assay using pON 245^ori- is dependent upon superinfection of the transfected cells with HSV. […] For example, see European Patent Application No. 8302149.5 filed Mar. 11, 1988 and published Sep. 14th 1988 as 282,330, the disclosure of which is incorporated herein by reference thereto.
HeLa cells were seeded into 96 well microtiter plates and allowed to grow to 80% confluency (approximately 35000 cells/well). One half microgram of plasmid pON 245^ori- DNA was introduced into the cells of each well by the […] precipitation technique (Grahman and Van der Eb, 1973). Four to six hours later, the cells were rinsed with Hank's Balanced Salt Solution (HBSS), overlaid with 10% EMEM and incubated at 37° C. At 24 hour post-transfection, cells were rinsed, overlaid with 10% EMEM again and re-incubated at 37° C. At 48 hours. post-transfection, cells were rinsed and overlaid with either EMEM containing 2% fetal calf serum (2% EMEM), 2% EM EM containing HSV-2 (strain MS, Multiplicity of Infection [moil =5 pfu/cell) or 2% EMEM containing HSV-2 and the appropriate concentration of the compound to be tested. Twenty-four hours later, the cells were harvested and assayed for beta-galactosidase activity as described below.
(§1) All determinations of beta-galactosidase activity were performed in 96 well microtiter plates. The intracellular level of beta-galactosidase activity in each well was determined from cell lysates of the monolayer cultures. Aliquots were assayed by incubation in the presence of beta-galactosiclasesubstrate, 4-methyl-umbelliferyl-β-D-galactoside (MUG, 125 μg/ml, Sigma), for 2 hour. The generation of fluorescent product was quantified on a Microfluor microfluorimeter (Dynatech) after addition of 0.1M glycine, pH 10.3 (Spaete and Mocarski, 1985). The inhibitory activity of a compound was plotted versus the concentration and an IC50 value (the concentration of compound required to reduce beta-galactosidase expression by 50%) was obtained for each compound tested.
Anti-HSV activity refers to the IC50 values in the HSV-β-gal assay which measures anti-viral activity in terms of inhibition of beta-galactosidase expression. The IC50 values refer to the concentration of the compound in micrograms/milliliter needed to reduce beta-galactosidase expression by 50%.

[1] = Compound toxicity assay: 3H-leucine incorporation (translational activity) in HeLa cells; assay type: cell-based; settings: human, reduction of leucine incorporation, read-out: CYTOTOXICITY 3H-LEU ASSAY IC50
Procedure: HeLa cells were treated with inhibitory compound for 24 hours, after which levels of translational activity were assayed.
For assay of translational activity, HeLa cultures were grown to 80% confluency in 96 well microtiter plates, treated with appropriate concentrations of compound in 2% EMEM during an overnight incubation at 37° C., then rinsed with HBSS and overlaid with […] of 2% EMEM containing 8 μCi of tritiated leucine (141 Cμ/mMol, Amersham Corp., Arlington Heights Ill.). After a 1 hour incubation at 36.5° C., the cells were rinsed twice with phosphate buffered saline (PBS) and lysed in 400 μl/well of 1×PBS, 0.5% sodium dodecyl sulphate (SDS). After a 10 min incubation at 36.5° C., the contents of the well were transferred to a well in a Millititer HA microfiltration plate (Millipore Corp., Bedford, Mass.). The TCA-insoluble proteins were precipitated onto the filter disc by a 10-minute-fixation with 5% TCA, followed by filtration under vacuum and three 10-minute-rinses with 95% ethanol. The filters were dried at room temperature, cut from the millititer plate and transferred to scintillation vials. TCA precipitable counts were assayed in 5 ml of Scintisol (Isolab, Akron, Ohio). The inhibitory activity of a compound was plotted versus the concentration and an IC50 value (that concentration of the compound required to decrease cellular translational activity by 50%) was derived for each compound.
Cytotoxicity refers to the IC50 values in the 3H-leucine (3H-Leu) incorporation. The IC50 values in this test refer to the concentration of the compound in micrograms/milliliter which reduces leucine incorporation by 50%.

HSV-2, strain MS = assay: Prophylactic guinea pig model of HSV-2 infection; assay type: in vivo; settings: test compounds 60 mg/kg s.c., T.I.D., 10 days, from 24 hours before infection; for MLS (Maximum Lesion Scores): scale of 1 (least) to 4 (severe), placebo 3; for NEUROLOGICAL DYSFUNCTIONS (percentage animals developing loss of bladder/hindlimb control): placebo 87
Procedure: The in vive assessment of anti-HSV efficacy was determined in the prophylactic guinea pig model of HSV infection described by Stansberry et al (1982). Dosing of guinea pigs comprised an initial treatment with test compound given 24 hours prior to virus infection and subsequent administration of the compound every eight hours (T.I.D.) for a total of 10 days. Test compounds were administered subcutaneously in 0.5% buffered methyl celluslose at a dose of 60 mg per kg body weight of the animal. Animals were monitored daily for the development of genital lesions and neurological symptomology, both of which were recorded and compared to the results obtained with parallel groups which received placebo or acyclovir treatment. Efficacy was evaluated for each compound by scoring the ability of the compound to ameliorate genital lesions produced by infection with HSV-2, strain MS, expressed as Maximum Lesion Scores (MLS) on a scale of 1 (least lesion) to 4 (severe lesions).

CMV (strain Towne) = assay: CMV-β-Gal assay: beta-galactosidase transient expression assay with CMV; assay type: cell-based; settings: Human betaherpesvirus 5, read-out: ANTI-CMV ACTIVITY CMV-β-Gal ASSAY IC50, CMV strain Towne
Procedure: as §1
Human foreskin fibroblast (HHF) cell cultures were grown in 10% EMEM. CMV (strain Towne received from Stanford University) was grown and titered in HHF cells. Plasmids pON 249 and pON 241 Δ NH3, containing CMV promoter genes, were used in the β-galactosidase transient expression assay as shown above.

[2] = CMV toxicity assay: tritiated leucine (3H-Leu) assay in HFF cells; assay type: cell-based; settings: HFF cells (human foreskin fibroblast); read-out: CYTOTOXICITY 3H-LEU ASSAY IC50
[3] = test system: antiviral activity of lidocaine or lidocaine hydrochloride; settings: added to lidocaine or lidocaine hydrochloride; Haines et al.; cited from earlier work
HSV-2 = settings: cell culture; Haines et al., U.S. Pat. No. 4,757,088; cited from earlier work
herpes virus infections = settings: mammals; Haines et al.; cited from earlier work
HSV-1 = settings: cell culture; Haines et al., U.S. Pat. No. 4,757,088; cited from earlier work
[4] = test system: HSV oral and genital lesions; settings: humans; Haines et al.; cited from earlier work

Row | Structure (SMILES) | IC50 (HSV-2 (strain MS); *Repeat) | IC50 (HSV-2 (strain MS); first value) | CC50 at 24 h ([1]; *Repeat) | CC50 at 24 h ([1]; first value) | further results
1 | CC(=O)Oc1c(C(OC(C)=O)OC(C)=O)c(=O)n(-c2ccccc2)c2ccccc12 [Formula 1.7] | 4 µg/mL | 4 µg/mL | 18 µg/mL | 20 µg/mL | 
2 | CCCCCCn1c(=O)c(C(OC(C)=O)OC(C)=O)c(OC)c2ccccc21 [Formula 1.1] |  | 1.4 µg/mL |  | 6 µg/mL | 
3 | CCC(=O)Oc1c(C(OC(=O)CC)OC(=O)CC)c(=O)n(C)c2ccccc12 [Formula 1.12] | 7 µg/mL | 8 µg/mL | 29 µg/mL | 29 µg/mL | 
4 | Nc1nc2c(ncn2COCCO)c(=O)[nH]1 [Acyclovir, 9-[(2-hydroxyethoxy)methyl]guanine, reference compound] |  |  |  |  | MLS (Maximum Lesion Scores) (HSV-2, strain MS): 1.5; NEUROLOGICAL DYSFUNCTIONS (percentage animals developing loss of bladder/hindlimb control) (HSV-2, strain MS): 50%
5 | COc1ccc(OCCCOCn2c(=O)c(C(OC(C)=O)OC(C)=O)c(OC(C)=O)c3ccccc32)c(Cl)c1 [Formula 1.14] |  | 9 µg/mL |  | 30 µg/mL | MLS (Maximum Lesion Scores) (HSV-2, strain MS): 1.8; NEUROLOGICAL DYSFUNCTIONS (percentage animals developing loss of bladder/hindlimb control) (HSV-2, strain MS): 12%; IC50 (CMV (strain Towne); first value): 16 µg/mL; IC50 (CMV (strain Towne); second value marked * (repeat)): 18 µg/mL; CC50 [2]: 50 µg/mL
6 | CC(C)(CO)[C@@H](O)C(=O)NCCC(=O)O [pantothenic acid] |  |  |  |  | enhancement of antiviral activity of lidocaine or lidocaine hydrochloride [3]: significantly enhances the antiviral activity
7 | COc1c(C(OC(C)=O)OC(C)=O)c(=O)n(C)c2ccccc12 [Formula 1.13] |  | 8 µg/mL |  | 18 µg/mL | 
8 | CCN(CC)CC(=O)Nc1c(C)cccc1C [lidocaine, 2-(diethylamino)-N-(2,6-dimethylphenyl)acetamide] |  |  |  |  | antiviral activity against HSV-2 (HSV-2): is an antiviral agent in cell culture against HSV-1 and HSV-2; treatment of herpes virus infections (herpes virus infections): is able to treat herpes virus infections of mammals; antiviral activity against HSV-1 (HSV-1): is an antiviral agent in cell culture against HSV-1 and HSV-2; treatment of HSV oral and genital lesions [4]: particularly effective in the treatment of HSV oral and genital lesions in humans
9 | CC(=O)Oc1c(C(OC(C)=O)OC(C)=O)c(=O)n(Cc2ccccc2)c2ccc(OCc3ccccc3)cc12 [Formula 1.15] | 10 µg/mL | 10 µg/mL | 40 µg/mL | 29 µg/mL | 
10 | C=CCOC(=O)Cn1c(=O)c(C(OC(C)=O)OC(C)=O)c(OC(C)=O)c2ccccc21 [Formula 1.16] |  | 10 µg/mL |  | 43 µg/mL | 
11 | CCCCCCn1c(=O)c(C(OC(C)=O)OC(C)=O)c(OC(C)=O)c2cc(C)ccc21 [Formula 1.9] | 8 µg/mL | 6 µg/mL | 37 µg/mL | 32 µg/mL | MLS (Maximum Lesion Scores) (HSV-2, strain MS): 2.5; NEUROLOGICAL DYSFUNCTIONS (percentage animals developing loss of bladder/hindlimb control) (HSV-2, strain MS): 75%
12 | CCCCCCCn1c(=O)c(C(OC(C)=O)OC(C)=O)c(OC(C)=O)c2ccccc21 [Formula 1.11] | 10 µg/mL | 8 µg/mL | 43 µg/mL | 25 µg/mL | 
13 | CCCCC(=O)Oc1c(C(OC(=O)CCCC)OC(=O)CCCC)c(=O)n(C)c2ccccc12 [Formula 1.8] | 4 µg/mL | 5 µg/mL | > 10 µg/mL | 30 µg/mL | 
14 | CCCCCCn1c(=O)c(C(OC)OC)c(OC)c2cc(C)ccc21 [Formula 1.17] |  | 5 µg/mL |  | 30 µg/mL | 
15 | CCCCCCn1c(=O)c(C(OC(C)=O)OC(C)=O)c(OC)c2cc(C)ccc21 [Formula 1.4] |  | 3 µg/mL |  | 2.5 µg/mL | 
16 | CC(=O)Oc1c(C(OC(C)=O)OC(C)=O)c(=O)n(Cc2ccccc2)c2ccccc12 [Formula 1.6] | 8 µg/mL | 4 µg/mL | 37 µg/mL | 32 µg/mL | IC50 (CMV (strain Towne); first value): 7 µg/mL; IC50 (CMV (strain Towne); second value marked * (repeat)): 8 µg/mL; CC50 [2]: 28 µg/mL
17 | CC(=O)Oc1c(C(OC(C)=O)OC(C)=O)c(=O)n(C)c2ccccc12 [Formula 1.5] | 3 µg/mL | 4 µg/mL | 25 µg/mL | 25 µg/mL | MLS (Maximum Lesion Scores) (HSV-2, strain MS): 1.3; NEUROLOGICAL DYSFUNCTIONS (percentage animals developing loss of bladder/hindlimb control) (HSV-2, strain MS): 0%
18 | CC(C)(CO)[C@@H](O)C(=O)NCCCO [dexpanthenol] |  |  |  |  | enhancement of antiviral activity of lidocaine or lidocaine hydrochloride [3]: significantly enhances the antiviral activity
19 | CC(=O)Oc1ccc2c(c1)c(OC(C)=O)c(C(OC(C)=O)OC(C)=O)c(=O)n2Cc1ccccc1 [Formula 1.2] | 2.5 µg/mL | 3 µg/mL | 3 µg/mL | 21.5 µg/mL | 
20 | COc1c(C(OC(C)=O)OC(C)=O)c(=O)n(Cc2ccccc2)c2ccc(C)cc12 [Formula 1.3] |  | 3 µg/mL |  | 2.7 µg/mL | MLS (Maximum Lesion Scores) (HSV-2, strain MS): 1.8; NEUROLOGICAL DYSFUNCTIONS (percentage animals developing loss of bladder/hindlimb control) (HSV-2, strain MS): 0%
21 | CC(=O)Oc1c(C(OC(C)=O)OC(C)=O)c(=O)n(Cc2ccccc2)c2ccc(C)cc12 [Formula 1.10] |  | 7 µg/mL |  | 18 µg/mL | 
